Converted amounts (≈) assume the structure as drawn.
Key:
[1] = test system: bacterial tester strains TA98, TA100, TA1535 and TA97a and E. coli tester strain WP2 uvrA; test: Ames genotoxicity (bacterial reverse mutation); conditions: In vitro tox
Experimental: For genotoxicity, bacterial tester strains TA98, TA100, TA1535 and TA97a as described by Ames et al. (1975) and the E. coli tester strain WP2 uvrA as described by Green and Muriel (1976) were incubated with Compound 003 at 250, 75, 25, 7.5, 2.5, 0.75, 0.25, and 0.075 μg/well in 24 well plates either with or without liver homogenate (S9) purchased commercially (MolTox; Boone, N.C.) prepared from male Sprague Dawley rats that have been injected intraperitonealy with Aroclor 1254 (200 mg/mL in corn oil), at a dose of 500 mg/kg, 5 days before sacrifice. Mutagenicity is evaluated by counting the number of colonies that form on non-permissive media.

[2] = test system: fetal β-like globin (HbG, γ); test: Fetal globin induction assay in CD34+ cells isolated from human bone marrow; format: cell-based
Experimental: CD34+ cells isolated from human bone marrow were cultured in vitro using a method described by Bradner J E (Proc Natl Acad Sci USA. 2010 Jul. 13; 107(28):12617-22), which consists of a 7 day expansion phase in media that supports differentiation of cells towards the erythroid lineage followed by a differentiation phase for 3 days where erythroid cell development continues. At the end of the differentiation period these cells are primarily late erythroblasts. mRNA levels were determined by quantitative real time PCR using primer/probe sets designed to adult major β-globin (β), adult minor β-globin (δ), fetal β-like globin (HbG, γ), and embryonic β-like globin (ε). Protein levels were determined by flow cytometry using fluorescent antibodies against fetal hemoglobin (HbF) or adult hemoglobin (HbA).
In the experiment shown in FIG. 3, cells were differentiated in the presence of vehicle (DMSO) 0.3, 1 and 3 μM of Compound A, and of 0.3, 1, and 3 μM of Compound 003. In the experiment shown in FIG. 6, cells were differentiated in the presence of vehicle (DMSO) 0.3, 1 and 3 μM of Compound A, and of 0.3, 1, and 3 μM of Compound 005. Globin mRNA levels were determined at day 3 of differentiation.

Solubility = format: physicochemical
hERG channel = hERG channel (Homo sapiens (Human), UniProt Q12809); test: hERG assay (QPatch, CHO cell line expressing hERG channels); format: cell-based; conditions: In vitro tox
Chain of hERG channel (Q12809 whole entry): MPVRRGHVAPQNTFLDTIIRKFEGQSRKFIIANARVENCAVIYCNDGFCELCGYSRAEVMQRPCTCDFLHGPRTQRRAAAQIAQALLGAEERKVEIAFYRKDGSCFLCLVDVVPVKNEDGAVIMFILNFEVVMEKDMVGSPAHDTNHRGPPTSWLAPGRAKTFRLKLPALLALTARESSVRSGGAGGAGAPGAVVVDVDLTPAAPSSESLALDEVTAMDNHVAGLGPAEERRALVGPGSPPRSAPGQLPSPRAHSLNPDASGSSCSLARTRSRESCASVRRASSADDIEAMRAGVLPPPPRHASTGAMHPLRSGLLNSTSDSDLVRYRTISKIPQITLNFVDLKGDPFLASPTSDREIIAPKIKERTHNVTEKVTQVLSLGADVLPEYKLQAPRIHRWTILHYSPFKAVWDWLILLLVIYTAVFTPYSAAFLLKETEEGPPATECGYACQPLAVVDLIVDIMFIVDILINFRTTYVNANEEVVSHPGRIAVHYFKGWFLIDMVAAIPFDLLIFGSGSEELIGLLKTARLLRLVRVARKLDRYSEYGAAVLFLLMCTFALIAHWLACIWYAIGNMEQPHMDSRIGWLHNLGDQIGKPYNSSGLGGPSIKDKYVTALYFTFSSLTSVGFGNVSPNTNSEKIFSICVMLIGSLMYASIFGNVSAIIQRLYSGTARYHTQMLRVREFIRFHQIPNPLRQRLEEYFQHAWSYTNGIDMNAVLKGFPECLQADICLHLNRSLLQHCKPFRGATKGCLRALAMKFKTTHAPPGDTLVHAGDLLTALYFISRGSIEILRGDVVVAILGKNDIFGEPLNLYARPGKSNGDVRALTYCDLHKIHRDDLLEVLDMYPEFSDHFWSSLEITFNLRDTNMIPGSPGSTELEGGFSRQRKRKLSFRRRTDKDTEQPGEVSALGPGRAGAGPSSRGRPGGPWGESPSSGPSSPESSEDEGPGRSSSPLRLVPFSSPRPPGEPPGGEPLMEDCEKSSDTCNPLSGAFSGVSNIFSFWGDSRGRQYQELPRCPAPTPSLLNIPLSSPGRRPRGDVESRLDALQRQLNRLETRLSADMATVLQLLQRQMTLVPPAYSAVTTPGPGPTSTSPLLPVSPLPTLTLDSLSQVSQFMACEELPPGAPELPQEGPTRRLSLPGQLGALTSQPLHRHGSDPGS
Experimental: For hERG assays, a CHO cell line stably transfected with hERG cDNA and expressing hERG channels were seeded into a QPatch plate (Sophion) at a density of 3-8×10^6 cells/ml. The cells were voltage clamped at a holding potential of −80 mV. The hERG current was activated by depolarizing at +20 mV for 5 sec, after which the current was taken back to −50 mV for 5 sec to remove the inactivation and observe the deactivating tail current. The maximum amount of tail current size was used to determine hERG current amplitude. Six doses (30, 10, 3, 1, 0.3 and 0.1 μM) of Compound 003 were chosen to obtain fitting curves and IC50. Data were analyzed using Assay Software provided by Sophion and Graphpad Prism.

HDAC2 = HDAC2 (Homo sapiens (Human), UniProt Q92769); test: HDAC enzyme assay, HDAC2; format: biochemical; conditions: 24 hours pre-incubation with enzyme; read-out: IC50 (nM) HDAC2
Chain of HDAC2 (Q92769 whole entry): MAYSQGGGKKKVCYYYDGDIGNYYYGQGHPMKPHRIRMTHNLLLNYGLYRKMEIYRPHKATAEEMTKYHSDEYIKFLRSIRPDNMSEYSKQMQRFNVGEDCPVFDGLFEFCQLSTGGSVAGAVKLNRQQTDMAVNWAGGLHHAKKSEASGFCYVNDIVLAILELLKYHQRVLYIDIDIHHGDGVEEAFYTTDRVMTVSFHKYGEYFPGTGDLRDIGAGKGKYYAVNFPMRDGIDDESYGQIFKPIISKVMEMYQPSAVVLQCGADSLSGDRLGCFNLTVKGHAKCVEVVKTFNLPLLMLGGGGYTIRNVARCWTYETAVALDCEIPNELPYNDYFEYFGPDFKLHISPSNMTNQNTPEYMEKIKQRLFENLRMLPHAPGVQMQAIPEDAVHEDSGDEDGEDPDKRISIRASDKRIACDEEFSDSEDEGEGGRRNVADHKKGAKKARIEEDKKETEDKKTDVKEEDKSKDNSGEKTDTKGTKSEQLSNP
Experimental: (§1) Compounds for testing were diluted in DMSO to 50 fold the final concentration and a ten point three fold dilution series was made. The compounds were diluted in assay buffer (50 mM HEPES, pH 7.4, 100 mM KCl, 0.001% Tween-20, 0.05% BSA, 20 μM tris(2-carboxyethyl)phosphine) to 6 fold their final concentration. The HDAC enzymes (purchased from BPS Biosciences) were diluted to 1.5 fold their final concentration in assay buffer and pre-incubated with the compounds for 24 hours prior to addition of the substrate.
(§2) The substrate tripeptide substrate 3 (synthesized in house) for each enzyme was equal to the Km as determined by a substrate titration curve. The substrates were diluted in assay buffer at 6× their final concentration with 0.3 μM sequencing grade trypsin (Sigma). The substrate/trypsin mix was added to the enzyme/compound mix, the plate was shaken for 60 seconds and placed into a Spectramax M5 microtiter plate reader. The development of fluorescence was monitored for 30 min and the linear rate of the reaction was calculated. The IC50 was determined using Graph Pad Prism by a four parameter curve fit. The IC50 values obtained for the compounds of this invention are found in Table 1. Examples of the curves are found in FIGS. 1 and 4.

HDAC3 = HDAC3 (Homo sapiens (Human), UniProt O15379); test: HDAC enzyme assay, HDAC3; format: biochemical; conditions: 24 hours pre-incubation with enzyme; read-out: IC50 (nM) HDAC3
Chain of HDAC3 (O15379 whole entry): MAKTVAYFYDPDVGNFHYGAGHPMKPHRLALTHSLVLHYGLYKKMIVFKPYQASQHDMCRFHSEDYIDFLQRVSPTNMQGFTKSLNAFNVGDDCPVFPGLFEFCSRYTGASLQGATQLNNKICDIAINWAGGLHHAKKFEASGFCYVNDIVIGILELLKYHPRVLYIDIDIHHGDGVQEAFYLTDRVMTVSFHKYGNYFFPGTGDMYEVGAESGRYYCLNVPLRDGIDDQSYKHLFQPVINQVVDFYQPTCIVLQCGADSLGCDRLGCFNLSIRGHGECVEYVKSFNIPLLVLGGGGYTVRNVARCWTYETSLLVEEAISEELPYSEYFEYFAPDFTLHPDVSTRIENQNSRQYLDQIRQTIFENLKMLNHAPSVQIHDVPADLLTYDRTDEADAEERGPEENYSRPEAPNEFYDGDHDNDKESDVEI
Chain of HDAC3 (Q9Y618 395-489 partner): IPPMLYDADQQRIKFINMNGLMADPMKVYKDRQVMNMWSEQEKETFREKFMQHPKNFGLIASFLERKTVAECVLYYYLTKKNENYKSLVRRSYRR
Experimental: as §1, §2

[3] = test system: CYP1A2, CYP2C9, CYP2C19, CYP3A4, CYP2D6; test: Cyp inhibition in human liver microsomes; format: in vitro ADME; conditions: In vitro tox; human liver microsomes
Experimental: For Cyp inhibition, human live microsomes from BD Gentest were incubated with Compound 003 (10, 3.33, 1.11, 0.37, 0.12, 0.04, 0.01 μM) and substrate (CYP1A2: Phenacetin at 30 μM; CYP2C9: Diclofenac at 10 μM; CYP2C19: S-Mephenytoin at 35 μM; CYP3A4: Midazolam at 5 μM and Testosterone at 80 μM; CYP2D6: Bufuralol at 10 μM) for the following incubation times: CYP1A2, 2C9, 2D6: 10 minutes, 37° C.; CYP2C19: 45 minutes, 37° C.; CYP3A4: 5 minutes, 37° C. Substrate conversion was measured by liquid chromatography/mass spectrometry/mass spectrometry (LC/MS/MS). Inhibition was calculated by curve fitting in Graph Pad Prism.

HDAC1 = HDAC1 (Homo sapiens (Human), UniProt Q13547); test: HDAC enzyme assay, HDAC1; format: biochemical; conditions: 24 hours pre-incubation with enzyme; read-out: IC50 (nM) HDAC1
Chain of HDAC1 (Q13547 whole entry): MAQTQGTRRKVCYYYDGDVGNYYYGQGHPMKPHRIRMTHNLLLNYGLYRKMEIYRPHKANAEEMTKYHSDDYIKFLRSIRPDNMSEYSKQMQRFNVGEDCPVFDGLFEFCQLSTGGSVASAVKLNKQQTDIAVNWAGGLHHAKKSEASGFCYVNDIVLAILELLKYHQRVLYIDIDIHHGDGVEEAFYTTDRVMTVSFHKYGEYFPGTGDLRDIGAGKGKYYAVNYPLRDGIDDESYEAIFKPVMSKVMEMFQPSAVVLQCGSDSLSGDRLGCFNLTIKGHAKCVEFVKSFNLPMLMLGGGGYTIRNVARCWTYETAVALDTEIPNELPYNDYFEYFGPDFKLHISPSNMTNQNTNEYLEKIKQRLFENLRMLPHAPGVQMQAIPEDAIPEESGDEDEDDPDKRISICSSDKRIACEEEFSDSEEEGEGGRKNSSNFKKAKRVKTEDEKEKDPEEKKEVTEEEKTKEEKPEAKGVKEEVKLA
Experimental: as §1, §2

For `CN1CCN(C(=O)N2CCC(Nc3ccc(C(=O)Nc4cc(-c5cccs5)ccc4N)cc3)CC2)CC1` [Compound 005], the Ames [1] was “Neg”, the “Cell based assay potency” value ([2]; lowest concentration to achieve a 2 fold increase in fetal globin gene expression over baseline) was 1000 nM and the “induction of % HbG” value ([2]; primary erythroid progenitors, 3 days differentiation (FIG. 6)) was “equivalent dose and time-dependent induction”. For the same compound, the solubility (Solubility) was 13.8 µM (≈ 7.16 µg/mL), the hERG (hERG channel) was 13.8 µM and the IC50 (HDAC2) was 4.9 nM. For the same compound, the IC50 (HDAC3) was 82 nM, the Cyp [3] was over 10 µM and the IC50 (HDAC1) was 1.2 nM.

— patent US9790180B2, “Piperidine derivatives as HDAC1/2 inhibitors” (Acetylon Pharmaceuticals, Inc., priority 2014, dated 2017)
